These results are taken from ChEMBL document CHEMBL4265935, “Synthesis and evaluation of novel arctigenin derivatives as potential anti-Toxoplasma gondii agents” (Eur J Med Chem, 2018).

Activity calls are given as the source filed them. The calls are words filed in the database; no cut-off is given here.

For data set [1], the system named is Toxoplasma gondii. The data set can be described thus: Antiparasitic activity against Toxoplasma gondii RH infected in Kunming mouse assessed as improvement of hepatomegaly at 100 mg/kg, po qd administered via gavage for 4 consecutive days measured on day 5. In kind it is functional, organism-based.
The test system of data set [2] is Toxoplasma gondii. The data set can be described thus: Antiparasitic activity against Toxoplasma gondii RH tachyzoites infected in human HeLa cells assessed as cell survival at 100 uM after 24 hrs by trypan blue assay (reference value: 20.8%). In kind it is functional.
The next data set relates to HeLa. The data set can be described thus: Cytotoxicity against human HeLa cells assessed as reduction in cell viability by MTT assay. In kind it is cell-based. Background: Tetrazolium dyes change colour on reduction, which living cells bring about.
Data set [3] concerns Toxoplasma gondii. The data set can be described thus: Antiparasitic activity against Toxoplasma gondii RH tachyzoites by MTT assay. In kind it is functional, organism-based.
Data set [4] relates to Toxoplasma gondii. The data set can be described thus: Antiparasitic activity against Toxoplasma gondii RH infected in Kunming mouse assessed as inhibition of number of intraperitoneal tachyzoite in abdominal cavity at 100 mg/kg, po qd administered via gavage for 4 consecutive days measured on day 5 by light microscopic analysis relative to control. In kind it is functional. The conditions noted are these: 120 h.

For data set [5], the system named is Toxoplasma gondii. The data set can be described thus: Antiparasitic activity against Toxoplasma gondii RH infected in Kunming mouse assessed as increase in GSH level in liver at 100 mg/kg, po qd administered via gavage for 4 consecutive days measured on day 5. In kind it is functional, organism-based.
The subject of data set [6] is Toxoplasma gondii. The data set can be described thus: Antiparasitic activity against Toxoplasma gondii RH infected in Kunming mouse assessed as increase in survival rate by measuring mortality day at 100 mg/kg, po qd administered via gavage for several consecutive days measured on day 12 (reference value: 9 to 11 days). The data set is classed as functional.
Data set [7] deals with Toxoplasma gondii. The data set can be described thus: Antiparasitic activity against Toxoplasma gondii RH tachyzoites infected in human HeLa cells assessed as increase in cell survival at 100 uM after 24 hrs by trypan blue assay relative to spiramycin. In kind it is functional.
The nature of data set [8]: Selectivity index, ratio of IC50 for human HeLa cells to ratio of IC50 for Toxoplasma gondii RH tachyzoites. In kind it is toxicity. The conditions noted are these: HeLa cells versus Toxoplasma gondii RH tachyzoites, read-out: Ratio IC50.
Data set [9] relates to Toxoplasma gondii. The data set can be described thus: Antiparasitic activity against Toxoplasma gondii RH infected in Kunming mouse assessed as reduction in serum AST level at 100 mg/kg, po qd administered via gavage for 4 consecutive days measured on day 5. In kind it is functional, organism-based.
The subject of data set [10] is Toxoplasma gondii. The data set can be described thus: Antiparasitic activity against Toxoplasma gondii RH infected in Kunming mouse assessed as reduction in serum ALT level at 100 mg/kg, po qd administered via gavage for 4 consecutive days measured on day 5. In kind it is functional, organism-based.

Take `COc1ccc(C[C@H]2COC(=O)[C@@H]2Cc2ccc(OCC(=O)Nc3ccccc3)c(OC)c2)cc1OC`: the result in the data set on Toxoplasma gondii [1], in the data set with Toxoplasma gondii [5] and in the data set on Toxoplasma gondii [9] was Active. For the same molecule, the survival at 100 µM in the data set with Toxoplasma gondii [2] is 69.7%. Further, the IC50 in the data set with HeLa was at least 600 µM; in the data set with Toxoplasma gondii [3] it was 40.6 µM. Further, the inhibition in vivo at 100 mg/kg with Toxoplasma gondii [4] is 82%. In the data set with Toxoplasma gondii [6], the mortality is 12 days. Moreover, in the data set with Toxoplasma gondii [7], the Activity amounted to 29.7%. Also, in data set [8], the selectivity ratio was above 14.8. In addition, the outcome in the data set on Toxoplasma gondii [10] was inactive.

A word on the IC50: it is the point on the concentration scale where inhibition reaches its midpoint. The inhibition in vivo is the percentage by which the read-out fell short of the control.
